Results published in the NIST ThermoML archive (doi:10.1021/je060271a).

Conditions: 343.15 K, Liquid, Vibrating tube method

CCCCC(=O)OCC(COC(=O)CCCC)(COC(=O)CCCC)COC(=O)CCCC [pentaerythritol tetrapentanoate]
Conditions | mass density [kg/m3]
27496 kPa | 998.3
27541 kPa | 998.4
27578 kPa | 998.4
27617 kPa | 998.5
27662 kPa | 998.4
27700 kPa | 998.5
27738 kPa | 998.5
27785 kPa | 998.6
27824 kPa | 998.6
27862 kPa | 998.5
27909 kPa | 998.6
27948 kPa | 998.7
27987 kPa | 998.7
28026 kPa | 998.7
28074 kPa | 998.7
28113 kPa | 998.8
28153 kPa | 998.7
28200 kPa | 998.8
28240 kPa | 998.9
28289 kPa | 998.9
28330 kPa | 998.9
28371 kPa | 998.8
28412 kPa | 998.9
28453 kPa | 999
28503 kPa | 998.9
28545 kPa | 999
28596 kPa | 999.1
28641 kPa | 999
28684 kPa | 999
28725 kPa | 999.2
28755 kPa | 999.2
28785 kPa | 999.3
28821 kPa | 999.1
28853 kPa | 999.3
28882 kPa | 999.3
28912 kPa | 999.2
28948 kPa | 999.2
28978 kPa | 999.3
29009 kPa | 999.3
29045 kPa | 999.5
29076 kPa | 999.4
29107 kPa | 999.3
29143 kPa | 999.5
29174 kPa | 999.4
29204 kPa | 999.5
29242 kPa | 999.5
29275 kPa | 999.5
29306 kPa | 999.5
29338 kPa | 999.6
29375 kPa | 999.6
29406 kPa | 999.6
29437 kPa | 999.6
29474 kPa | 999.6
29506 kPa | 999.7
29538 kPa | 999.7
29576 kPa | 999.7
29607 kPa | 999.7
29639 kPa | 999.8
29671 kPa | 999.8
29710 kPa | 999.8
29741 kPa | 999.9
29780 kPa | 999.8
29812 kPa | 999.9
29845 kPa | 999.9
29878 kPa | 999.9
29917 kPa | 1000
29950 kPa | 999.9
29983 kPa | 1000.1
30022 kPa | 999.9
30056 kPa | 1000
30088 kPa | 999.9
30128 kPa | 1000.2
30194 kPa | 1000.1
30227 kPa | 1000.2
30266 kPa | 1000.1
30299 kPa | 1000.3
30333 kPa | 1000.3
30374 kPa | 1000.1
30407 kPa | 1000.2
30441 kPa | 1000.2
30480 kPa | 1000.3
30514 kPa | 1000.3
30549 kPa | 1000.3
30590 kPa | 1000.5
30624 kPa | 1000.3
30658 kPa | 1000.4
30698 kPa | 1000.5
30733 kPa | 1000.5
30767 kPa | 1000.5
30808 kPa | 1000.6
30843 kPa | 1000.4
30878 kPa | 1000.6
30919 kPa | 1000.5
30954 kPa | 1000.5
30990 kPa | 1000.7
31031 kPa | 1000.7
31067 kPa | 1000.8
31103 kPa | 1000.6
31138 kPa | 1000.7
31181 kPa | 1000.7
31216 kPa | 1000.7
31252 kPa | 1000.8
31294 kPa | 1000.8
31330 kPa | 1000.9
31366 kPa | 1000.9
31409 kPa | 1001
31444 kPa | 1000.8
31481 kPa | 1000.8
31524 kPa | 1000.8
31560 kPa | 1000.9
31597 kPa | 1000.9
31634 kPa | 1001
31678 kPa | 1001
31714 kPa | 1001
31758 kPa | 1001.1
31795 kPa | 1001
31832 kPa | 1001
31876 kPa | 1001.1
31913 kPa | 1001.1
31950 kPa | 1001.3
31995 kPa | 1001.3
32033 kPa | 1001.4
32074 kPa | 1001.2
32111 kPa | 1001.4
32156 kPa | 1001.3
32194 kPa | 1001.5
32232 kPa | 1001.2
32278 kPa | 1001.4
32438 kPa | 1001.5
32476 kPa | 1001.5
32563 kPa | 1001.6
32604 kPa | 1001.6
32643 kPa | 1001.6
32691 kPa | 1001.8
32730 kPa | 1001.6
32769 kPa | 1001.8
32816 kPa | 1001.8
32856 kPa | 1001.8
32896 kPa | 1001.8
32943 kPa | 1001.8
32983 kPa | 1001.9
33024 kPa | 1001.9
33064 kPa | 1001.9
33114 kPa | 1002
33154 kPa | 1001.9
33196 kPa | 1001.9
33244 kPa | 1002.1
33285 kPa | 1002.1
33326 kPa | 1002.2
33374 kPa | 1002
33416 kPa | 1002.1
33457 kPa | 1002.2
33507 kPa | 1002.2
33548 kPa | 1002.2
33591 kPa | 1002.3
33641 kPa | 1002.3
33684 kPa | 1002.3
33726 kPa | 1002.5
33778 kPa | 1002.4
33822 kPa | 1002.4
